{"source": "patent US10022374B2", "about": "“Certain protein kinase inhibitors” (Shanghai Fochon Pharmaceutical Co., Ltd., priority 2013, dated 2018)", "key": {"[1]": {"test_system": "A-375 cells", "assay": "Inhibition of cell proliferation (MTS), A-375 cells", "format": "cell-based", "details": "Homo sapiens, A-375, 72 h, A-375 cells, 3000 cells/well, 72 h, MTS, absorbance 490 nm; read-out: A375 IC50", "experimental": "(§1) MTS testing kit was purchased from Promega. The DMEM, RPMI-1640 and Fetal bovine serum were purchased from Gibco. Dimethyl sulfoxide (DMSO) was purchased from Sigma.\n(§2) To investigate whether a compound is able to inhibit the activity of MEK in cells, a mechanism-based assay using A-375 and HT-29 cell was developed. In this assay, inhibition of MEK was detected by the inhibition of A-375 and HT-29 cells proliferation. A-375 and HT-29 cells were cultured in culture flasks to 40-80% confluence respectively in DMEM and RPMI-1640 plus 10% fetal bovine serum. Cells were collected and plated onto 96-well plates at desired cell density (A-375: 3000 cells/well; HT-29: 5000 cells/well). Plates were incubated overnight at 37° C., with 5% CO2 to adhere. Compounds were added to the plates. The final compound concentrations were […], 12.35, 4.12, 1.37, 0.46 and 0.15 nM, respectively. Place plates at 37° C., with 5% CO2 for 72 h. 10 μl MTS were added to each well and incubate the plates for exactly 2 hours. Absorbance was measured at 490 nm. […] was calculated using GraphPad Prism 5.0."}, "[2]": {"test_system": "HT-29 cells", "assay": "Inhibition of cell proliferation (MTS), HT-29 cells", "format": "cell-based", "details": "Homo sapiens, HT-29, 72 h, HT-29 cells, 5000 cells/well, 72 h, MTS, absorbance 490 nm; read-out: HT29 IC50", "experimental": "as §1, §2"}}, "note": "pIC50: −log10 of the molar value."}
{"smiles": "C=CCn1nc(-c2cccc(NS(=O)(=O)C3CC3)c2)c2c(c(Nc3ccc(I)cc3F)c(F)c(=O)n2C)c1=O", "note": "[Example 8, N-(3-(6-allyl-3-fluoro-4-(2-fluoro-4-iodophenylamino)-1-methyl-2,5-dioxo-1,2,5,6-tetrahydropyrido[2,3-d]pyridazin-8-yl)phenyl)cyclopropanesulfonamide]", "values": [{"measurement": "pIC50", "setting": "[1]", "result": 8.27}, {"measurement": "pIC50", "setting": "[2]", "result": 8.27}]}
{"smiles": "Cn1c(=O)c(F)c(Nc2ccc(I)cc2F)c2c(=O)n(CC(F)F)nc(-c3cccc(NS(=O)(=O)C4CC4)c3)c21", "note": "[Example 20, N-(3-(6-(2,2-difluoroethyl)-3-fluoro-4-(2-fluoro-4-iodophenylamino)-1-methyl-2,5-dioxo-1,2,5,6-tetrahydropyrido[2,3-d]pyridazin-8-yl)phenyl)cyclopropanesulfonamide]", "values": [{"measurement": "pIC50", "setting": "[1]", "result": 8.19}, {"measurement": "pIC50", "setting": "[2]", "result": 8.11}]}
{"smiles": "CC(C)C(=O)Nc1cccc(-c2nn(C(C)C)c(=O)c3c(Nc4ccc(I)cc4F)c(F)c(=O)n(C)c23)c1", "note": "[Example 11, N-(3-(3-fluoro-4-(2-fluoro-4-iodophenylamino)-6-isopropyl-1-methyl-2,5-dioxo-1,2,5,6-tetrahydropyrido[2,3-d]pyridazin-8-yl)phenyl)isobutyramide]", "values": [{"measurement": "pIC50", "setting": "[1]", "result": 6.70}, {"measurement": "pIC50", "setting": "[2]", "result": 6.74}]}
{"smiles": "Cn1c(=O)c(F)c(Nc2ccc(I)cc2F)c2c(=O)n(C3CC3)nc(-c3cccc(N4CCCC4=O)c3)c21", "note": "[Example 53, 6-cyclopropyl-3-fluoro-4-((2-fluoro-4-iodophenyl)amino)-1-methyl-8-(3-(2-oxopyrrolidin-1-yl)phenyl)pyrido[2,3-d]pyridazine-2,5(1H,6H)-dione]", "values": [{"measurement": "pIC50", "setting": "[1]", "result": 8.11}, {"measurement": "pIC50", "setting": "[2]", "result": 7.72}]}
{"smiles": "CC(C)n1nc(-c2cccc(NS(C)(=O)=O)c2)c2c(c(Nc3ccc(I)cc3F)c(F)c(=O)n2C)c1=O", "note": "[Example 13, N-(3-(3-fluoro-4-(2-fluoro-4-iodophenylamino)-6-isopropyl-1-methyl-2,5-dioxo-1,2,5,6-tetrahydropyrido[2,3-d]pyridazin-8-yl)phenyl)methanesulfonamide]", "values": [{"measurement": "pIC50", "setting": "[1]", "result": 7.58}, {"measurement": "pIC50", "setting": "[2]", "result": 7.06}]}
{"smiles": "CCS(=O)(=O)Nc1cccc(-c2nn(C(C)C)c(=O)c3c(Nc4ccc(I)cc4F)c(F)c(=O)n(C)c23)c1", "note": "[Example 14, N-(3-(3-fluoro-4-(2-fluoro-4-iodophenylamino)-6-isopropyl-1-methyl-2,5-dioxo-1,2,5,6-tetrahydropyrido[2,3-d]pyridazin-8-yl)phenyl)ethanesulfonamide]", "values": [{"measurement": "pIC50", "setting": "[1]", "result": 7.71}, {"measurement": "pIC50", "setting": "[2]", "result": 8.19}]}
{"smiles": "Cn1c(=O)c(F)c(Nc2ccc(I)cc2F)c2c(=O)n(C3CC3)nc(-c3cccc(N4CCCS4(=O)=O)c3)c21", "note": "[Example 55, 6-cyclopropyl-8-(3-(1,1-dioxidoisothiazolidin-2-yl)phenyl)-3-fluoro-4-((2-fluoro-4-iodophenyl)amino)-1-methylpyrido[2,3-d]pyridazine-2,5(1H,6H)-dione]", "values": [{"measurement": "pIC50", "setting": "[1]", "result": 8.06}, {"measurement": "pIC50", "setting": "[2]", "result": 7.73}]}
{"smiles": "CN(c1cccc(-c2nn(C3CC3)c(=O)c3c(Nc4ccc(I)cc4F)c(F)c(=O)n(C)c23)c1)S(=O)(=O)C1CC1", "note": "[Example 49, N-(3-(6-cyclopropyl-3-fluoro-4-((2-fluoro-4-iodophenyl)amino)-1-methyl-2,5-dioxo-1,2,5,6-tetrahydropyrido[2,3-d]pyridazin-8-yl)phenyl)-N-methylcyclopropanesulfonamide]", "values": [{"measurement": "pIC50", "setting": "[1]", "result": 8.60}, {"measurement": "pIC50", "setting": "[2]", "result": 7.93}]}
{"smiles": "Cn1nc(-c2cccc(NS(C)(=O)=O)c2)c2c(c(Nc3ccc(I)cc3F)c(F)c(=O)n2C)c1=O", "note": "[Example 22, N-(3-(3-fluoro-4-(2-fluoro-4-iodophenylamino)-1,6-dimethyl-2,5-dioxo-1,2,5,6-tetrahydropyrido[2,3-d]pyridazin-8-yl)phenyl)methanesulfonamide]", "values": [{"measurement": "pIC50", "setting": "[1]", "result": "> 9.00"}, {"measurement": "pIC50", "setting": "[2]", "result": "> 9.00"}]}
{"smiles": "CC(C)n1nc(-c2cccc(NS(=O)(=O)C(C)C)c2)c2c(c(Nc3ccc(I)cc3F)c(F)c(=O)n2C)c1=O", "note": "[Example 15, N-(3-(3-fluoro-4-(2-fluoro-4-iodophenylamino)-6-isopropyl-1-methyl-2,5-dioxo-1,2,5,6-tetrahydropyrido[2,3-d]pyridazin-8-yl)phenyl)propane-2-sulfonamide]", "values": [{"measurement": "pIC50", "setting": "[1]", "result": 7.46}, {"measurement": "pIC50", "setting": "[2]", "result": 6.82}]}
{"smiles": "CCn1nc(-c2cccc(NS(=O)(=O)C(C)C)c2)c2c(c(Nc3ccc(I)cc3F)c(F)c(=O)n2C)c1=O", "note": "[Example 26, N-(3-(6-ethyl-3-fluoro-4-(2-fluoro-4-iodophenylamino)-1-methyl-2,5-dioxo-1,2,5,6-tetrahydropyrido[2,3-d]pyridazin-8-yl)phenyl)propane-2-sulfonamide]", "values": [{"measurement": "pIC50", "setting": "[1]", "result": 7.92}, {"measurement": "pIC50", "setting": "[2]", "result": "> 9.00"}]}
{"smiles": "CCn1nc(-c2cccc(NC(C)=O)c2)c2c(c(Nc3ccc(I)cc3F)c(F)c(=O)n2C)c1=O", "note": "[Example 24, N-(3-(6-ethyl-3-fluoro-4-(2-fluoro-4-iodophenylamino)-1-methyl-2,5-dioxo-1,2,5,6-tetrahydropyrido[2,3-d]pyridazin-8-yl)phenyl)acetamide]", "values": [{"measurement": "pIC50", "setting": "[1]", "result": 7.86}, {"measurement": "pIC50", "setting": "[2]", "result": 8.21}]}
{"smiles": "Cn1c(=O)c(F)c(Nc2ccc(I)cc2F)c2c(=O)n(CC(O)CO)nc(-c3cccc(NC(=O)C4CC4)c3)c21", "note": "(centres unmarked) [Example 42, N-(3-(6-(2,3-dihydroxypropyl)-3-fluoro-4-(2-fluoro-4-iodophenylamino)-1-methyl-2,5-dioxo-1,2,5,6-tetrahydropyrido[2,3-d]pyridazin-8-yl)phenyl)cyclopropanecarboxamide]", "values": [{"measurement": "pIC50", "setting": "[1]", "result": 6.74}, {"measurement": "pIC50", "setting": "[2]", "result": 6.95}]}
